From PMC8388802, “Study on the Structure-Activity Relationship of an Antimicrobial Peptide, Brevinin-2GUb, from the Skin Secretion of Hylarana guentheri” (Antibiotics, 2021)
Values after ≈ are worked out from the molar mass of the structure shown. Where a SMILES comes first, the peptide text is derived from it.

Legend:
[1] = tested on: P. aeruginosa (ATCC CRM 9027); type: cell-based, Pseudomonas aeruginosa
Procedure: (§1) The method of antimicrobial assay is based on the Methods for Dilution Antimicrobial Susceptibility Tests for Bacteria that Grow Aerobically from the Clinical and Laboratory Standards Institute (CLSI).The antimicrobial activities of peptides were evaluated against Gram-positive bacteria S. aureus (ATCC 6538), MRSA (NCTC 12493), E. faecalis (NCTC 12493), Gram-negative bacteria E. coli (ATCC CRM 8739), K. pneumoniae (ATCC 43816), P. aeruginosa (ATCC CRM 9027), yeast C. albicans (ATCC CRM 10231) and clinical isolates MRSA (B042 V2E1 A), E. coli (ATCC BAA-2340), K. pneumoniae (ATCC BAA-1705), P. aeruginosa (B004 V2S2 B).
(§2) At the first stage of the assay, 20 μL bacteria were cultured in 100 mL Mueller Hinton Broth (MHB) or Yeast Extract–Peptone–Dextrose broth (YPD-B), respectively, and was incubated overnight. Then, microorganisms were subcultured in 20 mL fresh MHB or YPD-B to achieve cultures in the logarithmic phase (1 × 10^8 CFU/mL), which can be verified by optical density (OD) (The OD of Gram-positive bacteria is 0.23, OD of Gram-negative bacteria is 0.4, and OD of yeast is 0.15), and viable cell counts. Then, the medium was used to dilute the cultures to specific cell densities (Gram-negative and Gram-positive bacteria: 5 × 10^5 CFU/mL; yeast: 1 × 10^6 CFU/mL), which were the final concentrations of bacterial suspensions used in the assay. The peptides were dissolved in DMSO to reach a final concentration of 512 µM. A series of two-fold dilutions ranging from 512 µM to 1 µM were dosed in the 96-well plates.
(§3) Antimicrobial assays were conducted in 96-well plates, which were divided into five groups, including a negative control group (PBS), a positive control group (20 μg/mL norfloxacin for bacteria and 10 μg/mL amphotericin B for yeast), vehicle control (1% DMSO), blank control (MHB or YPD-B), and a peptide group. Each microorganism had five repetitions, and each well contained 1 µL corresponding solution and 99 µL culture. After incubation at 37 °C overnight, the absorbance of each well was tested by a microplate reader (EL808, Biolise BioTek Winooski, Minneapolis, USA) under a 550 nm wavelength. The MIC is the lowest concentration at which no bacterial growth can be observed.
(§4) The next day, 10 µL of every clear well was taken out to be cultured on a Mueller Hinton Agar (MHA) plate and incubated at 37 °C for 16–20 h. The MBC is the lowest concentration without any bacterial colonies, which means at this concentration, the peptide reduces the viability of the pathogen by more than 99.9%.

[2] = tested on: E. coli (ATCC CRM 8739) biofilm; type: cell-based, Escherichia coli; details: ATCC CRM 8739, 24 h
Procedure: (§5) The anti-biofilm activities of the peptides against S. aureus (ATCC 6538), MRSA (NCTC 12493), E. faecalis (NCTC 12493), E. coli (ATCC CRM 8739), K. pneumoniae (ATCC 43816), and P. aeruginosa (ATCC CRM 9027) were evaluated.
(§6) The bacteria were inoculated in a different medium (Gram-positive bacteria were in TSB and Gram-negative bacteria were in LB) overnight, and the subculture was conducted in the same medium. When the bacteria reached a specific density, 100 µL of the dilution was added to each well of the 96-well microplate. Then 1 µL of peptide at a series of concentrations, the same concentration in the antimicrobial assay, were added into the well together with the bacteria. The plates were put into a moist shaking incubator with a speed of 200 rpm, and the temperature was set at 37 ℃. After a 24-h incubation, the liquid in the wells was aspirated, and each was washed twice by 100 µL PBS. One hundred µL of methanol were added into each well to stabilise the biofilm. After air-drying, 100 µL crystal violet was used to dye the biofilm, and they were dissolved in the 100 µL glacial acidic acid after drying. The solutions were transferred to a new microplate, and the absorbance of each well was tested by a microplate reader (EL808, Biolise BioTek Winooski, Minneapolis, MN, USA) at 595 nm wavelength. MBIC was the minimum concentration of the peptide showing no biofilm formation.
(§7) The bacteria were inoculated in a different medium (Gram-positive bacteria were in TSB and Gram-negative bacteria were in LB) overnight, and the subculture was conducted in the same medium. When the bacteria reached a specific density, 100 µL of the dilution was added to each well of the 96-well microplates. The plates were put into a moist shaking incubator with a speed of 200 rpm and the temperature was 37 ℃. After a 24 h incubation, the liquid in the wells was aspirated and they were washed twice by 100 µL PBS of each well. The peptides with the same concentrations were diluted in the corresponding medium and 100 µL were added into each well. After a 24-h incubation, the liquid in the wells was aspirated and they were washed twice by 100 µL PBS. One hundred µL of methanol were added into the wells to stabilise the biofilms. After being air-dried, 100 µL crystal violet was used to dye the biofilm, and they were dissolved in the 100 µL glacial acidic acid after drying. The solutions were transferred to a new microplate, and the absorbance of each well was tested by a microplate reader (EL808, Biolise BioTek Winooski, Minneapolis, USA) at 595 nm wavelength.

[3] = tested on: K. pneumoniae (ATCC 43816); type: cell-based, Klebsiella pneumoniae
Procedure: as §1, §2, §3, §4

[4] = tested on: K. pneumoniae (ATCC BAA-1705); type: cell-based, Klebsiella pneumoniae
Procedure: as §1, §2, §3, §4

[5] = tested on: E. faecalis (NCTC 12493); type: cell-based, Enterococcus faecalis
Procedure: as §1, §2, §3, §4

[6] = tested on: E. coli (ATCC CRM 8739); type: cell-based, Escherichia coli
Procedure: as §1, §2, §3, §4

[7] = tested on: C. albicans (ATCC CRM 10231); type: cell-based, Candida albicans
Procedure: as §1, §2, §3, §4

[8] = tested on: MRSA (NCTC 12493); type: cell-based, Methicillin-resistant Staphylococcus aureus
Procedure: as §1, §2, §3, §4

[9] = tested on: MRSA (B042 V2E1 A); type: cell-based, Methicillin-resistant Staphylococcus aureus
Procedure: as §1, §2, §3, §4

[10] = tested on: S. aureus (ATCC 6538) biofilm; type: cell-based, Staphylococcus aureus; details: ATCC 6538, 24 h
Procedure: as §5, §6, §7

| MIC [1] [µM] | MIC [3] [µM] | MIC [4] [µM] | MIC [5] [µM] | MIC [6] [µM] | MIC [7] [µM] | MIC [8] [µM] | MIC [9] [µM] | Structure (SMILES) | MBC [1] [µM] | MBEC [2] [µM] | MBIC [2] [µM] | MBC [3] [µM] | MBC [4] [µM] | MBC [5] [µM] | MBC [6] [µM] | MBC [7] [µM] | MBC [8] [µM] | MBC [9] [µM] | MBEC [10] | MBIC [10] |
| --- | --- | --- | --- | --- | --- | --- | --- | --- | --- | --- | --- | --- | --- | --- | --- | --- | --- | --- | --- | --- |
| >512 | 512 (≈ 1220 µg/mL) | >512 | >512 | 128 (≈ 304 µg/mL) | >512 | >512 | >512 | CC[C@H](C)[C@H](NC(=O)[C@@H](NC(=O)CN)C(C)C)C(=O)N[C@H](C(=O)N[C@@H](CC(=O)O)C(=O)N[C@H](C(=O)N[C@@H](CC(C)C)C(=O)N[C@@H](CCCCN)C(=O)NCC(=O)N[C@@H](C)C(=O)N[C@@H](C)C(=O)N[C@@H](CCCCN)C(=O)N[C@H](C(=O)N[C@H](C(=O)N[C@@H](C)C(=O)N[C@@H](C)C(=O)N[C@@H](CCC(=O)O)C(=O)N[C@@H](CC(C)C)C(=O)N[C@@H](CC(C)C)C(=O)N[C@@H](CCCNC(=N)N)C(=O)N[C@@H](CCCCN)C(=O)N[C@@H](C)C(=O)N[C@@H](Cc1c[nH]cn1)C(N)=O)C(C)C)[C@@H](C)O)[C@@H](C)O)[C@@H](C)CC [tB2U] (H-GVIIDTLKGAAKTVAAELLRKAH-NH2) | >512 | >512 | >512 | > 512 | >512 | >512 | 128 (≈ 304 µg/mL) | >512 | >512 | >512 | >512 µM | >512 µM |
| >512 | >512 | >512 | >512 | >512 | >512 | >512 | >512 | CC[C@H](C)[C@H](NC(=O)[C@@H](NC(=O)CN)C(C)C)C(=O)N[C@H](C(=O)N[C@@H](CC(=O)O)C(=O)N[C@H](C(=O)N[C@@H](CC(C)C)C(=O)N[C@@H](CCCCN)C(=O)NCC(=O)N[C@@H](C)C(=O)N[C@@H](C)C(=O)N[C@@H](CCCCN)C(=O)N[C@H](C(=O)N[C@H](C(=O)N[C@@H](C)C(=O)N[C@@H](C)C(=O)N[C@@H](CCC(=O)O)C(=O)N[C@@H](CC(C)C)C(=O)N[C@@H](CC(C)C)C(N)=O)C(C)C)[C@@H](C)O)[C@@H](C)O)[C@@H](C)CC [tB2U-α] (H-GVIIDTLKGAAKTVAAELL-NH2) | >512 | >512 | >512 | >512 | >512 | >512 | >512 | >512 | >512 | >512 | >512 µM | >512 µM |
| >512 | >512 | >512 | >512 | >512 | >512 | 256 (≈ 190 µg/mL) | >512 | CC[C@H](C)[C@H](NC(=O)[C@@H](NC(=O)CN)C(C)C)C(=O)N[C@H](C(=O)N[C@@H](CCCCN)C(=O)N[C@H](C(=O)N[C@@H](CC(C)C)C(N)=O)[C@@H](C)O)[C@@H](C)CC [Peptide 7-tB2U-K] (H-GVIIKTL-NH2) | >512 | >512 | >512 | >512 | >512 | >512 | >512 | >512 | > 512 | >512 | 512/>512 μM | 512/>512 μM |
